{
  "source": "patent US20060019270A1",
  "about": "“Global DNA methylation assessment using bisulfite PCR” (Board of Regents The University of Texas System, priority 2004, published 2006)",
  "assay_type_in_all_cases": "cell-based, human",
  "key": {"[1]": {"test_system": "LINE-1 methylation in SW48 cells", "test": "COBRA (HinfI) of LINE-1 PCR, SW48 cells treated with DAC", "settings": "5 μM DAC for three days, decrease from 59%", "experimental": "(§1) Hct116, RKO and SW48, colon cancer cell lines (American Type Culture Collection, Manassas, Va.), were cultured using standard methods. Cells were treated with 5 μM 5-aza-2′deoxycytidine (DAC) for three days prior to being harvested. DNA from cell lines and peripheral blood leukocytes was extracted using phenol-chloroform extraction methods well known to one with skill on the art.\n(§2) Bisulfite modification of genomic DNA is known in the art (see Clark et. al, 1994). In brief, 1.5 μg prepared 10 mM hydroquinone (Sigma) and 520 μl of 3M Sodium Bisulfite (Sigma) at pH=5.0 were added and mixed. The samples were overlayed with mineral oil to prevent evaporation and incubated at 50° C. for 16 hours. The bisulfite treated DNA was isolated using Wizard DNA Clean-Up System (Promega). The DNA was eluted by 50 μl of warm water and 5.5 μl of 3M NaOH were added for 5 minutes. The DNA was ethanol precipitated with glycogen as a carrier and resuspended in 20 μl water. Bisulfite treated DNA was stored at −20° C. until ready for use. […]\n(§3) In order to test whether Alu element […] LINE-1 methylation could approximate global methylation, COBRA, restriction digestion of the repetitive element PCR product, was used to quantitate DNA methylation in cell lines treated with 5-aza-2′deoxycytidine (DAC) (FIG. 3). […] Thus both assays reliably detected inhibition of methylation induced by DAC. […]"}, "[2]": {"test_system": "LINE-1 methylation in Hct116 cells", "test": "COBRA (HinfI) of LINE-1 PCR, Hct116 cells treated with DAC", "settings": "5 μM DAC for three days, 77% prior to treatment", "experimental": "as §1, §2, §3"}, "[3]": {"test_system": "Alu element methylation in Hct116 cells", "test": "Bisulfite Alu PCR and pyrosequencing, Hct116 cells treated with DAC", "experimental": "as §1\nBisulfite modification of genomic DNA is known in the art (see Clark et. al, 1994). In brief, 1.5 μg prepared 10 mM hydroquinone (Sigma) and 520 μl of 3M Sodium Bisulfite (Sigma) at pH=5.0 were added and mixed. The samples were overlayed with mineral oil to prevent evaporation and incubated at 50° C. for 16 hours. […] Bisulfite treated DNA was stored at −20° C. until ready for use.\nThe Alu element PCR reaction was modified for pyrosequencing based methylation analysis. […] The PCR product was purified and quantitated using the PSQ HS 96 Pyrosequencing System (Pyrosequencing, Inc.; Westborough, Mass.). […]\nBisulfite Alu PCR products could also be analyzed by pyrosequencing allowing for a rapid analysis of multiple CpG sites. […] This method has the advantage of analyzing several methylation sites, is not restricted to restriction enzyme sites, avoids sequencing multiple clones, and allows accurate quantitation of multiple CpG methylation sites in the same reaction. […]"}},
  "data": [
    {"smiles": "Nc1ncn([C@H]2C[C@H](O)[C@@H](CO)O2)c(=O)n1", "note": "[decitabine, 5-aza-2′-deoxycytidine]", "values": [
      {"measurement": "LINE-1 methylation after treatment with DAC", "setting": "[1]", "result": 41, "unit": "%"},
      {"measurement": "LINE-1 methylation after treatment with DAC", "setting": "[2]", "result": 17, "unit": "%"},
      {"measurement": "Alu methylation after DAC as percent of potential methylation sites", "setting": "[3]; pyrosequencing, untreated about 87%", "result": 62, "unit": "%"},
      {"measurement": "Alu methylation by pyrosequencing after DAC treatment (average of three CpG sites)", "setting": "[3]; untreated 20.2%, SssI maximum 23.2%", "result": 14.5, "unit": "%"}
    ]}
  ]
}
